Like-named read-outs stand apart in the source and are kept apart here.
Key:
Assay type in all cases: in vivo
[1] = tested on: Eiysiphe graminis f. sp. tritici; experiment: Test A: wheat powdery mildew, preventive spray on wheat seedlings; details: for Test A disease control rating (100 = 100% disease control, 0 = no disease control): wheat seedlings sprayed to run-off, inoculated the following day, rating relative to controls, unmarked compounds (standard test rate); for Test A disease control rating: wheat powdery mildew
Procedure, shortened: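 Preventive test: seedlings inoculated with powdery mildew spores one day after run-off spraying of a suspension. Ratings after 7 days in a 20° C growth chamber express percent disease control versus controls.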

[2] = tested on: Puccinia recondita; experiment: Test B: wheat leaf rust, preventive spray on wheat seedlings; details: for Test B disease control rating (100 = 100% disease control, 0 = no disease control): wheat seedlings sprayed to run-off, inoculated the following day, rating relative to controls, unmarked compounds (standard test rate); for Test B disease control rating: wheat leaf rust
Procedure, shortened: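 Preventive test: P. recondita spores were applied one day after a run-off spray of compound suspension on wheat seedlings. Plants had 24 h at 20 °C in saturated air plus 6 days in a 20 °C growth chamber. Scoring is % disease control (100 = full) relative to controls.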

[3] = tested on: Pyricularia oryzae; details: for Test C disease control rating (100 = 100% disease control, 0 = no disease control): rice seedlings sprayed to run-off, inoculated the following day, rating relative to controls, unmarked compounds (standard test rate); for Test C disease control rating: rice blast
[4] = tested on: Phytophthora infestans; details: for Test D disease control rating (100 = 100% disease control, 0 = no disease control): tomato seedlings sprayed to run-off, inoculated the following day, rating relative to controls, unmarked compounds (standard test rate); for Test D disease control rating: tomato late blight
[5] = tested on: Botrytis cinerea; experiment: Test E: gray mold, preventive spray on cucumber seedlings; details: for Test E disease control rating (100 = 100% disease control, 0 = no disease control): cucumber seedlings sprayed to run-off, inoculated the following day, rating relative to controls, unmarked compounds (standard test rate); for Test E disease control rating: gray mold on cucumber
Procedure, shortened: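 Preventive spray on cucumber seedlings used a suspension (3% acetone, 250 ppm Trem 014), applied to run-off one day before inoculation with Botrytis cinerea spores. Plants were held 48 h at 20° C in saturated air, then 5 days at 20° C. Percent disease control was scored relative to untreated plants.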

[6] = 100 = 100% disease control, 0 = no control relative to controls, unmarked entries (standard test concentration)
[7] = 100 = 100% disease control, 0 = no control, unmarked entries (standard test concentration)

| Structure (SMILES) | Test A disease control rating (100 = 100% disease control, 0 = no disease control) [1] [%] | Test B disease control rating (100 = 100% disease control, 0 = no disease control) [2] [%] | Test C disease control rating (100 = 100% disease control, 0 = no disease control) [3] [%] | Test D disease control rating (100 = 100% disease control, 0 = no disease control) [4] [%] | Test E disease control rating (100 = 100% disease control, 0 = no disease control) [5] [%] | also measured |
| --- | --- | --- | --- | --- | --- | --- |
| CC(COc1cc(F)c(F)cc1C#N)NC(=O)C(C#N)C(C)C(C)(C)C (mixture of isomers) [compound 278] | 56 | 67 | 32 | 0 | 94 | – |
| C[C@H](COc1ccc(F)c(F)c1F)NC(=O)C(C#N)C(C)(C)C (single isomer, unassigned) [190b] | – | – | – | – | – | Test A disease control rating [1, 6]: 0%; Test B disease control rating [2, 7]: 0%; Test C disease control rating [3, 7]: 94%; Test D disease control rating [4, 7]: 0%; Test E disease control rating [5, 7]: 0% |
| CCC1(C(=O)NCC=Cc2cccc(F)c2)C(C)C1(Cl)Cl (stereo not drawn) [compound 264] | 0 | 0 | 90 | 54 | 94 | – |
| CCC1(C(=O)NC(C)COc2cc(F)cc(F)c2Cl)C(C)C1(Cl)Cl (stereo not drawn) [compound 123] | – | – | – | – | – | Test A disease control rating ([1]; tested at 40 ppm): 90%; Test B disease control rating ([2]; tested at 40 ppm): 0%; Test C disease control rating ([3]; tested at 40 ppm): 53%; Test D disease control rating ([4]; tested at 40 ppm): 0%; Test E disease control rating ([5]; tested at 40 ppm): 0% |
| CC(C)C(C#N)C(=O)NC(C)C(Oc1cc(F)ccc1C#N)c1ccccc1 (mixture of isomers) [compound 289] | 0 | 0 | 90 | 45 | 0 | – |
| CC(C=Cc1ccccc1F)NC(=O)C(C#N)C(C)(C)C (mixture of isomers) [compound 308] | 86 | 28 | 100 | 45 | 0 | – |
| CC(COc1cc(F)ccc1Cl)NC(=O)C(C#N)C(C)(C)C (mixture of isomers) [191c] | – | – | – | – | – | Test A disease control rating [1, 6]: 86%; Test B disease control rating [2, 7]: 0%; Test C disease control rating [3, 7]: 100%; Test D disease control rating [4, 7]: 23%; Test E disease control rating [5, 7]: 0% |
| CCC1(C(=O)NC(C)COc2ccccc2Cl)C(C)C1(Cl)Cl (mixture of isomers) [81b] | – | – | – | – | – | Test A disease control rating ([1]; tested at 40 ppm): 85%; Test B disease control rating ([2]; tested at 40 ppm): 0%; Test C disease control rating ([3]; tested at 40 ppm): 74%; Test D disease control rating ([4]; tested at 40 ppm): 0%; Test E disease control rating ([5]; tested at 40 ppm): 0% |
| CCC(C)c1ccccc1OCC(C)NC(=O)C(C#N)C(C)(C)C (mixture of isomers) [compound 306] | 0 | 67 | 99 | 0 | 94 | – |
| C=CCc1ccccc1OCC(C)NC(=O)C1(CC)C(C)C1(Cl)Cl (stereo not drawn) [101b] | – | – | – | – | – | Test A disease control rating ([1]; tested at 40 ppm): 0%; Test B disease control rating ([2]; tested at 40 ppm): 0%; Test C disease control rating ([3]; tested at 40 ppm): 0%; Test D disease control rating ([4]; tested at 40 ppm): 0%; Test E disease control rating ([5]; tested at 40 ppm): 0% |
| C[C@H](COc1cc(F)ccc1F)NC(=O)C(C#N)C(C)(C)C=CF (single isomer, unassigned) [221b] | 62 | 68 | 100 | 41 | 0 | – |
| CCC1(C(=O)NC(C)COc2cc(Cl)ccc2C#N)C(C)C1(Cl)Cl (stereo not drawn) [compound 239] | 0 | 0 | 97 | 88 | 0 | – |

From patent US6642392B1 (priority 1997, dated 2003)
